The values that follow come from patent publication US6632829B2, “Sulfonamides and derivatives thereof that modulate the activity of endothelin” (Texas Biotechnology Corp., priority 1996, dated 2003).

Data set [1] deals with T1, human ETA receptors (Homo sapiens, UniProt P25101).
T1 construct: endogenous in cells; host or cells: TE 671 cells (ATCC HTB 139), membrane preparation
T1 sequence (P25101 21-427): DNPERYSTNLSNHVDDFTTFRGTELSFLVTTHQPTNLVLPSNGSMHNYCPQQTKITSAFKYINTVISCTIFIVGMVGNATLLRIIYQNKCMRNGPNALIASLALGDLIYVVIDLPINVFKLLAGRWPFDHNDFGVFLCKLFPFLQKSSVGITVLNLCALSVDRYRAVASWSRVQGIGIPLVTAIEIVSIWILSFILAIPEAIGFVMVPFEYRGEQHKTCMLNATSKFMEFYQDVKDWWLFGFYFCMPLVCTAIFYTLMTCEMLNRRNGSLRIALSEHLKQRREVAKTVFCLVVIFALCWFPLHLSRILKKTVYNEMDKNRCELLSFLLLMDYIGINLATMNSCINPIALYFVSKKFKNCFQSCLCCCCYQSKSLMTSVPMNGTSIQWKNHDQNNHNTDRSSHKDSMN
As to the kind of experiment: Endothelin binding inhibition, Binding Test #1: competition with 125I-ET-1 for ETA receptors on TE 671 cell membranes.

Data set [2] has as its target T2, human ETB receptor (Homo sapiens, UniProt P24530).
T2 construct: expressed in transfected cells; host or cells: COS7 cells
T2 sequence (P24530 27-442): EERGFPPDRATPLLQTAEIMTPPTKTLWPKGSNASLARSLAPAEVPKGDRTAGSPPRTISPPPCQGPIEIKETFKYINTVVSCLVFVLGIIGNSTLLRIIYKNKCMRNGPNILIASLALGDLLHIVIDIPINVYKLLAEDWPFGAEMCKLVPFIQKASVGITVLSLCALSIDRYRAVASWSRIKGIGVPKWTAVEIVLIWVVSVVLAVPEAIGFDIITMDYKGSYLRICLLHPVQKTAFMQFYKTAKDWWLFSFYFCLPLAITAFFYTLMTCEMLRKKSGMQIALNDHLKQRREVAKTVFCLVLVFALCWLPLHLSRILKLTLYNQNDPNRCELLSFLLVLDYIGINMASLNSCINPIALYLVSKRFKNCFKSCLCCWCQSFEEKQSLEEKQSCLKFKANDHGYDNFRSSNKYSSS
As to the kind of experiment: Endothelin binding inhibition, Binding Test #2: competition with 125I-ET-1 for ETB receptors on transfected COS7 cell membranes. In a few lines:
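Membranes from COS7 cells transfected with human ETB receptor, prepared in HEPES pH 7.4 with aprotinin, MnCl2/DNase treatment at 37° C for 30 min. Test compounds compete with 125I-labeled ET-1 for receptor binding; membrane used at 1 μg/50 μL binding buffer.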

Data set [3] in a line: Papp. It counts as in vitro ADME. Particulars: not told.
The nature of data set [4]: Oral half-life and peak plasma levels. It counts as in vivo. The settings on record: for POt½ in Rat: oral; for Peak Plasma Levels: rat, in vivo. The text has this: As used herein, bioavailability refers to the rate and extent of absorption. Methods for determining bioavailability are well known to those of skill in the art. For example, bioavailability of any of the compounds described herein can be determined empirically by administration of the compound to an animal, followed by taking blood samples over time and measuring the blood concentration of the compound. In vivo half life (t1/2) is defined as the time it takes for the concentration of the compound in the blood to be reduced by one-half. Estimations of the area under the curve for intravenous administration can be used to estimate the area under the curve for oral administration, ylelding bioavailability data. See, e.g., Milo Gibal (1991) Biopharmaceutics and Pharmacology, 4th edition (Lea and Sediger).
Table 2 lists oral half-life, bioavailability, and in vivo activity of selected exemplary compounds. The in vivo activity was measured in a pulmonary hypertension model and is a measure of the activity of the compounds at selected dosages.

[5] abbreviates: incubation at 24° C. (values marked †).
Where [6] appears, read: incubation at 4° C. (values without †).

For `COC(=O)Cc1c(C)cc(C)c(NC(=O)c2sccc2S(=O)(=O)Nc2onc(C)c2Cl)c1C` [N-(4-chloro-3-methyl-5-isoxazolyl)-2-(3-methoxycarbonylmethyl-2,4,6-trimethylphenylaminocarbonyl)thiophene-3-sulfonamide], the IC50 (commonly the concentration at which inhibition is half-maximal) in data set [1] (setting [5]) was determined as 1 nM; in data set [2] (setting [5]), 114 µM. In data set [3], the Papp (as a rule, the rate of passage across a membrane or cell layer, normalised by area and donor concentration) is 1.69 ×10⁻⁶ cm/s.
`Cc1cc(C)c(NC(=O)c2sccc2S(=O)(=O)Nc2onc(C)c2C)c(C)c1CC#N` [N-(3,4-dimethyl-5-isoxazolyl)-2-(3-cyanomethyl-2,4,6-trimethylphenylaminocarbonyl)thiophene-3-sulfonamide] returned an IC50 in data set [1] (setting [5]) of 1.56 nM. In data set [2] (setting [5]), this molecule displayed an IC50 of 22.8 µM. In addition, in data set [4], the “POt½ in Rat” value turned out to be 1.8 h and the “Peak Plasma Levels” value was found to be 10.9 µg/mL.
As to `Cc1cc(C)c(NS(C)(=O)=O)c(C)c1NC(=O)c1sccc1S(=O)(=O)Nc1onc(C)c1Cl` [N-(4-chloro-3-methyl-5-isoxazolyl)-2-(3-methanesulfonylamino-2,4,6-trimethylphenylaminocarbonyl)thiophene-3-sulfonamide], the IC50 in data set [1] (setting [5]) is 1.62 nM; in data set [2] (setting [5]), 67.6 µM. The “POt½ in Rat” value in data set [4] stood at 5.9 h. Besides, in data set [4], the “Peak Plasma Levels” value turned out to be 2.6 µg/mL.
For `Cc1cc(C)c(S(N)(=O)=O)c(C)c1NC(=O)c1sccc1S(=O)(=O)Nc1onc(C)c1Cl` [N-(4-chloro-3-methyl-5-isoxazolyl)-2-(3-sulfamoyl-2,4,6-trimethylphenylaminocarbonyl)thiophene-3-sulfonamide], in that order: 0.92 nM, 25.5 µM, 3.4 h and 2.8 µg/mL.
Consider `Cc1cc(C)c(NC(=O)c2sccc2S(=O)(=O)Nc2onc(C)c2Cl)c(C)c1CC(=O)O` [N-(4-chloro-3-methyl-5-isoxazolyl)-2-(3-carboxymethyl-2,4,6-trimethylphenylaminocarbonyl)thiophene-3-sulfonamide], for which the IC50 in data set [1] (setting [5]) was 1.77 nM; in data set [2] (setting [5]), 106 µM. Moreover, the Papp in data set [3] came out at 1.1 ×10⁻⁶ cm/s.
In the case of `Cc1noc(NS(=O)(=O)c2sccc2-c2ccc3c(c2)OCO3)c1Br` [N-(4-bromo-3-methyl-5-isoxazolyl)-3-[(3,4-methylenedioxy)phenyl]thiophene-2-sulfonamide], the IC50 in data set [1] (setting [5]) was 500 nM; in data set [2] (setting [5]), 79 µM.
As to `Cc1cc2c(cc1C=CCc1sccc1S(=O)(=O)Nc1onc(C)c1Br)OCO2` [N-(4-bromo-3-methyl-5-isoxazolyl)-2-[2-methyl-4,5-(methylenedioxy)cinnamyl]thiophene-3-sulfonamide], the figures for the IC50 in data set [1] (setting [5]) and in data set [2] (setting [5]) were 80.4 nM and 3.28 µM, respectively.
For `Cc1noc(NS(=O)(=O)c2ccsc2C(=O)C(C#N)c2ccc3c(c2)OCO3)c1Cl` (centres unmarked) [N-(4-chloro-3-methyl-5-isoxazolyl)-2-{1-cyano-1-[(3,4-methylenedioxy)phenyl]acetyl}thiophene-3-sulfonamide], the IC50 came to 2100 nM in data set [1] (setting [5]) and 27 µM in data set [2] (setting [5]).
On to `Cc1ccc(NC(=O)c2sccc2S(=O)(=O)Nc2onc(C)c2Cl)cc1` [N-(4-chloro-3-methyl-5-isoxazolyl)-2-[(4-tolyl)aminocarbonyl]thiophene-3-sulfonamide], for which the IC50 was determined as 1.16 nM in data set [1] (setting [6]), 10.5 nM in data set [1] (setting [5]), 2.93 µM in data set [2] (setting [6]) and 14 µM in data set [2] (setting [5]).
With `COc1ccc(OC(=O)c2sccc2S(=O)(=O)Nc2onc(C)c2Cl)cc1` [N-(4-chloro-3-methyl-5-isoxazolyl)-2-[(4-methoxyphenoxy)carbonyl]thiophene-3-sulfonamide], the IC50 in data set [1] (setting [5]) came to 23 nM; in data set [2] (setting [5]) it was 15 µM.
For the molecule `Cc1ccc(CC(=O)c2sccc2S(=O)(=O)Nc2onc(C)c2Br)c(C)c1` [N-(4-bromo-3-methyl-5-isoxazolyl)-2-(2,4-dimethylphenylacetyl)thiophene-3-sulfonamide], the 50% inhibitory concentration (IC50) was found to be 0.8 nM in data set [1] (setting [5]) and 3.6 µM in data set [2] (setting [5]).
